Laboratory results as given in patent publication US20260137699A1, “OXAZEPINE COMPOUNDS COMPRISING A 6-AZA MOIETY AND USES THEREOF” (Genentech, Inc., priority 2022, published 2026).

Legend:
Type in all cases: cell-based
HPAC cells = experiment: HPAC 3D proliferation assay (CellTiter-Glo 3D); conditions: Homo sapiens, 168 h, 3D culture, 7 days, read-out: HPAC CTG IC50
Protocol: (§1) Compound potencies were assessed in proliferation assays conducted with SW620 and HPAC cell lines grown in 3D cultures. Cells were seeded into 96- or 384-well ultra-low attachment plates at 3000 or 1000 cells/well, respectively, in culture medium (RPMI-1640, 10% FBS, 2 mM L-glutamine). The plated cells were centrifuged briefly, allowed to rest for 30 minutes under ambient conditions, and cultured overnight at 37° C./5% C02 to initiate the formation of spheroids. Compound dilutions were prepared across a range of concentrations in DMSO and added to the appropriate wells of the assay plates with a 333-fold dilution into the culture medium. The plates were further incubated for 7 days. The quantity of viable cells was assessed using CellTiter-Glo 3D Cell Viability Assay (Promega). The detection reagent penetrates the spheroids and lyses the cells. The released ATP that was detected with luciferase and a luciferase substrate to generate a luminescent readout. […] The data points were fit to a 4-parameter logistic equation to determine IC50 values.

pERK in SW620 cells = experiment: SW620 pERK assay; conditions: Homo sapiens, SW-620, SW620
SW620 cells = experiment: SW620 3D proliferation assay (CellTiter-Glo 3D); conditions: Homo sapiens, SW-620, 168 h, SW620, 3D culture, 7 days, read-out: SW620 CTG IC50
Protocol: as §1

H1975 cells = experiment: H1975 CTG proliferation assay; conditions: Homo sapiens, NCI-H1975, H1975

**Q.** With `Cc1nc(N)c(Cl)c(-c2nc3c4c(nc(OC[C@@]56CCCN5C[C@H](F)C6)nc4c2F)N([C@H](C)c2cccnc2N)CCO3)c1C(F)(F)F` (atropisomer, axis not shown; (aS)) [Example 601a, 4-((R)-10-((R)-1-(2-aminopyridin-3-yl)ethyl)-4-fluoro-2-(((2R,7aS)-2-fluorotetrahydro-1H-pyrrolizin-7a(5H)-yl)methoxy)-9,10-dihydro-8H-7-oxa-1,3,6,10-tetraazacyclohepta[de]naphthalen-5-yl)-3-chloro-6-methyl-5-(trifluoromethyl)pyridin-2-amine] as the molecule, how does the IC50 (HPAC cells) read?
**A.** 33.6 nM

**Q.** What about the IC50 (pERK in SW620 cells) of the same molecule?
**A.** 2.34 nM

**Q.** How did the IC50 (HPAC cells) turn out when `Cc1nc(N)c(Cl)c(-c2nc3c4c(nc(OC[C@@]56CCCN5C[C@H](F)C6)nc4c2F)N([C@H](C)c2cccnc2N)CCO3)c1C(F)(F)F` (single isomer, unassigned) [Example 601b] was run?
**A.** 86.7 nM

**Q.** What about the IC50 (SW620 cells) of the same molecule?
**A.** 9.3 nM

**Q.** What about the IC50 (pERK in SW620 cells) of the same molecule?
**A.** 15.6 nM

**Q.** What about the IC50 (H1975 cells) of the same molecule?
**A.** 80.2 nM

**Q.** Which IC50 (HPAC cells) does the source give for `Cc1c(F)c(N)cc(-c2nc3c4c(nc(OC[C@@H]5CC(F)(F)CN5C)nc4c2F)N([C@H](C)c2nccnc2N)CCO3)c1C(F)(F)F` [Example 8, 3-((R)-1-(5-(5-amino-4-fluoro-3-methyl-2-(trifluoromethyl)phenyl)-2-(((S)-4,4-difluoro-1-methylpyrrolidin-2-yl)methoxy)-4-fluoro-8,9-dihydro-10H-7-oxa-1,3,6,10-tetraazacyclohepta[de]naphthalen-10-yl)ethyl)pyrazin-2-amine] here?
**A.** ≥ 2000 nM

**Q.** For `C[C@H](c1cccnc1N)N1CCOc2nc(-c3cccc4sc(N)nc34)c(F)c3nc(OC[C@@]45CCCN4C[C@H](F)C5)nc1c23` [Example 24, 4-(10-((R)-1-(2-aminopyridin-3-yl)ethyl)-4-fluoro-2-(((2R,7aS)-2-fluorotetrahydro-1H-pyrrolizin-7a(5H)-yl)methoxy)-9,10-dihydro-8H-7-oxa-1,3,6,10-tetraazacyclohepta[de]naphthalen-5-yl)benzo[d]thiazol-2-amine], which IC50 (HPAC cells) is on record?
**A.** ≥ 2000 nM
